Source: patent publication US8318668B2 (Trustees of Tufts College, priority 2005, dated 2012)
One block for each compound: values may come before it. Square brackets hold non-standard residues; d marks the D form. Ends that are not written are not given here. Peptide text beside a SMILES is read from it. Tle = CC(C)(C)[C@H](N)C(=O)O

How the values were obtained:
[1] = target: rat DPP IV (Rattus norvegicus, UniProt P14740); assay: Digestion of model hexapeptides by rat DPP IV (LCMS); settings: for half-life: pH 8
Text: The data were fit to a single phase exponential equation.
DPP-IV cleaves the N-terminal dipeptide from peptides with either Pro or Ala in the penultimate position (P2).

[2] = tested on: db mice; assay: Time course of blood glucose lowering in db mice; settings: 8 μg injected; for duration of action (in words): db / diabetic mice
Protocol: At each time point the percent change in blood glucose was determined for 10 mice and the average change±SEM is plotted.
At each time point, the percentage change in blood glucose was determined for 10 mice and the average change±SEM is plotted.
In an exemplary embodiment, for treatment of the mice with a regimen including a peptide hormone analog or control, sub-orbital sinus blood samples are taken before and at some time (e.g., 60 minutes) after dosing of each animal. Blood glucose measurements can be made by any of several conventional techniques, such as using a glucose meter. The blood glucose levels of the control and peptide hormone analog dosed animals are compared

[3] = target: human GLP-1 receptor (Homo sapiens, UniProt P43220); settings: peptide concentration 300 nM
Protocol: Peptides were tested for agonist activity at a concentration of 300 nM. The data represent the mean±SEM with n=4.
Data values∓SEM are plotted and fit to a sigmoidal dose-response curve.

[4] = tested on: db mice; assay: Dose response of blood glucose lowering in diabetic (db) mice; type: in vivo; settings: blood glucose 60 minutes post injection
Text: The data were fit to a sigmoidal dose response curve.

Sequence of rat DPP IV (P14740 whole entry): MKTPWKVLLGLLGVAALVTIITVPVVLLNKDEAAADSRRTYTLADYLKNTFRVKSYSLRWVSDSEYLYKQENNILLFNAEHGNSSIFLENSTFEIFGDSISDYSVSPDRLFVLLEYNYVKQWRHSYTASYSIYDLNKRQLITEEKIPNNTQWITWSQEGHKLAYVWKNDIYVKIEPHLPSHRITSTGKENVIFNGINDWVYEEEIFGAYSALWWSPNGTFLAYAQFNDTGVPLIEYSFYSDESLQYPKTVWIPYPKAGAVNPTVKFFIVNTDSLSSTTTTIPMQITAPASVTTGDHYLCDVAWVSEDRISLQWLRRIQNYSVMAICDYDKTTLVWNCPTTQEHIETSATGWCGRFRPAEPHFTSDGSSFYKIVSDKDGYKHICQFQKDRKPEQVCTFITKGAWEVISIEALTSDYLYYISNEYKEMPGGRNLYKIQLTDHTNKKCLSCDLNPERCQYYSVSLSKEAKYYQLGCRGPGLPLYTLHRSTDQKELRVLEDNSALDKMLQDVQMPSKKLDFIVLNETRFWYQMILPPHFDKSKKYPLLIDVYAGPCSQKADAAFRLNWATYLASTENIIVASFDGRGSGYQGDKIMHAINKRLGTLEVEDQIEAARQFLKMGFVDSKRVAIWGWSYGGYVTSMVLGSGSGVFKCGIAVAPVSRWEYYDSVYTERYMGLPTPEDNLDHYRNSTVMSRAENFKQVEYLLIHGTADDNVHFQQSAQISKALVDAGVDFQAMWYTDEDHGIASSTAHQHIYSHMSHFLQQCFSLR
Sequence of human GLP-1 receptor (P43220 24-463): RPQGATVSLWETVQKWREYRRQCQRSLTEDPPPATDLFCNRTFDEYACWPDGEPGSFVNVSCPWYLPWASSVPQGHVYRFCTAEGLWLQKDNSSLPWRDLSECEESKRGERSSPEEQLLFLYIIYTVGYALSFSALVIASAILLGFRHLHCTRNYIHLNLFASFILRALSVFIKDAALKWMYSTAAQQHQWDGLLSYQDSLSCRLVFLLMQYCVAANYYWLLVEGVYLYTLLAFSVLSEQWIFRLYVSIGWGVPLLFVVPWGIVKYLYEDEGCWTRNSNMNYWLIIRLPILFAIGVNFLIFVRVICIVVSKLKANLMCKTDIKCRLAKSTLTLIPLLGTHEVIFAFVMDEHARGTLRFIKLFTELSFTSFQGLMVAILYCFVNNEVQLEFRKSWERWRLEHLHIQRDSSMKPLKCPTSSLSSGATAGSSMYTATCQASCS

cleavage by rat DPP IV (in words) [1]: No reaction was observed
Compound: C[C@H](N)C(=O)N1CCC[C@H]1C(=O)N[C@H](C(=O)N[C@@H](CO)C(=O)N[C@@H](Cc1c[nH]c2ccccc12)C(=O)N[C@@H](CO)C(N)=O)C(C)(C)C [Ala-Pro-Tle-Ser-Trp-Ser-NH2] (H-AP[Tle]SWS-NH2)

Compound: CC[C@H](C)[C@H](NC(=O)[C@H](Cc1ccccc1)NC(=O)[C@H](CCC(=O)O)NC(=O)[C@H](CCCCN)NC(=O)[C@H](C)NC(=O)[C@H](C)NC(=O)[C@H](CCC(N)=O)NC(=O)CNC(=O)[C@H](CCC(=O)O)NC(=O)[C@H](CC(C)C)NC(=O)[C@H](Cc1ccc(O)cc1)NC(=O)[C@H](CO)NC(=O)[C@H](CO)NC(=O)[C@@H](NC(=O)[C@H](CC(=O)O)NC(=O)[C@H](CO)NC(=O)[C@@H](NC(=O)[C@H](Cc1ccccc1)NC(=O)[C@@H](NC(=O)CNC(=O)[C@H](CCC(=O)O)NC(=O)[C@H](C)NC(=O)[C@@H](N)Cc1c[nH]cn1)[C@@H](C)O)[C@@H](C)O)C(C)C)C(=O)N[C@@H](C)C(=O)N[C@@H](Cc1c[nH]c2ccccc12)C(=O)N[C@@H](CC(C)C)C(=O)N[C@H](C(=O)N[C@@H](CCCCN)C(=O)NCC(=O)N[C@@H](CCCNC(=N)N)C(N)=O)C(C)C [GLP-1, reference compound]
duration of action (in words) [2]: largely gone by 60 minutes

amount of GLP-1 receptor activation as measured by cAMP production [3]: the same | 95% confidence interval of EC50 of glucose lowering effect [4]: 0.1 to 1.92 µg | EC50 of glucose lowering effect [4]: 0.4 µg
Compound: CC[C@H](C)[C@H](NC(=O)[C@H](Cc1ccccc1)NC(=O)[C@H](CCC(=O)O)NC(=O)[C@H](CCCCN)NC(=O)[C@H](C)NC(=O)[C@H](C)NC(=O)[C@H](CCC(N)=O)NC(=O)CNC(=O)[C@H](CCC(=O)O)NC(=O)[C@H](CC(C)C)NC(=O)[C@H](Cc1ccc(O)cc1)NC(=O)[C@H](CO)NC(=O)[C@H](CO)NC(=O)[C@@H](NC(=O)[C@H](CC(=O)O)NC(=O)[C@H](CO)NC(=O)[C@@H](NC(=O)[C@H](Cc1ccccc1)NC(=O)[C@@H](NC(=O)CNC(=O)[C@@H](NC(=O)[C@H](C)NC(=O)[C@@H](N)Cc1c[nH]cn1)C(C)(C)C(=O)O)[C@@H](C)O)[C@@H](C)O)C(C)C)C(=O)N[C@@H](C)C(=O)N[C@@H](Cc1c[nH]c2ccccc12)C(=O)N[C@@H](CC(C)C)C(=O)N[C@H](C(=O)N[C@@H](CCCCN)C(=O)NCC(=O)N[C@@H](CCCNC(=N)N)C(N)=O)C(C)C [TPA1B4, HAXGTFTSDVSSYLEGQAAKEFIAWLVKGR-NH2]
blood glucose level reached (in words) ([2]; db mice): within the range observed for normal mice | duration of blood glucose lowering effect ([2]; db mice): at least 90 minutes | time of return of blood glucose to hyperglycemic values ([2]; db mice): ≤ 4 h

half-life [1]: 41 min
Compound: APISWS-NH2 [Ala-Pro-Ile-Ser-Trp-Ser-NH2]

Compound: APLSWS-NH2 [Ala-Pro-Leu-Ser-Trp-Ser-NH2]
half-life [1]: 49 min

Compound: HAXGTFTSDVSSYLEGQAAKEFIAWLVKGRZ-NH2 (HAXGTFTSDVSSYLEGQAAKEFIAWLVKGRX; β-dimethyl Asp, biphenylalanine, C-terminal amide) [DGS69]
duration of action (in words) [2]: significantly increased the duration
